# Source: EP0603240B1, “SAFENING HERBICIDAL PYRAZOLYLSULFONYLUREAS” (priority 1991, dated 1993)
# How the values were obtained:
# [1] = test system: velvetleaf (Abutilon theophrasti); assay: Example 9, Procedure II: Herbicide No. 1 + pretilachlor (No. 13) with antidotes; assay type: in vivo
# Procedure: (§1) Containers were filled and compacted with a fumigated silt loam top soil to a depth of about 1.3 cm from the top of the container. A first container was designated as an untreated control, a second container was designated as a herbicide control, and a third container was designated as a herbicide + antidote test container. Each of the containers was seeded with a crop species. A measured amount of herbicide dispersed or dissolved in acetone was applied to a measured quantity of soil. To this same quantity of soil treated with herbicide, there was added a measured amount of antidote dispersed or dissolved in acetone. The quantity of soil treated with the herbicide and antidote was thoroughly mixed to incorporate the herbicide and antidote in the soil uniformly. The seed bed in the third container of soil was covered with the soil treated with the herbicide and antidote and the container was leveled. For each test series, the seed beds of the first and second containers were likewise covered by soil layers. the cover layer of the first container was not treated with herbicide or antidote.
# (§2) The containers were then placed on a bench in a greenhouse and sub-irrigated as required for the duration of the test. […] Plant response is measured in terms of percent injury. Antidote efficacy is indicated as the difference in plant injury by the herbicide(s) without the antidote and with the antidote.
# (§3) This procedure is the same as Procedure I, but modified in the manner that after incorporation of the chemicals (herbicide and antidote) the containers with the covered seedbed were treated with an initial overhead irrigation equivalent to 0.6 cm rainfall, then subsequently sub-irrigated as required on greenhouse benches.
# (§4) In the series of greenhouse tests described below, for routine screening purposes the herbicide/antidote compositions were tested in crop/weed combinations involving corn as the crop and either or both of the weeds barnyardgrass (Echinochloa crusgalli), a monocotyledonous weed, and velvetleaf (Abutilon theophrasti), a dicotyledonous weed. In the tables below, these weeds are indicated by the symbols "BYG" and "VL", respectively.
# (§5) In this example the safening effect on a composition comprising Herbicide No. 1 and another leading rice herbicide, i.e., Herbicide No. 13, was investigated using the same antidotes and test procedure described in the preceding example. Herbicide No. 13 is pretilachlor, active ingredient used in the commercial rice herbicides RIFIT®, SOFIT® and SOFIT® SUPER.
# [2] = test system: barnyardgrass (Echinochloa crusgalli); assay: as above; assay type: in vivo
# Procedure: as §1, §2, §3, §4, §5
# corn [3] = assay: Example 10, Procedure II: Herbicide No. 1 + propachlor (No. 5) with antidotes; assay type: in vivo
# Procedure: as §1, §2, §3
# In this test, the safening effect of various antidotes on the herbicidal combination of Herbicide No. 1 and another α-chloroacetanilide co-herbicide, propachlor, (Herbicide No. 5) was investigated. Propachlor is the active ingredient in the commercial herbicide RAMROD®. Procedure II was also used in this test as in the preceding example.
# corn [4] = assay: Example 5, Procedure I: Herbicide No. 1 + alachlor (No. 7) with Antidote Nos. 15 and 16; assay type: in vivo; details: Herbicide Nos. 1 and 7, Table 5
# Procedure: as §1, §2
# (§6) This example describes tests with Antidote Nos. 15 and 16 to safen Herbicide No. 1 according to Procedure I using corn and the weeds barnyardgrass and velvetleaf as the test plants.
# In the tests described in this example, the same procedure described in Example 4 was performed simultaneously therewith and under the same conditions, except that a co-herbicide, alachlor, was included in the same composition with Herbicide No. 1 and Antidote Nos. 15 and 16. Alachlor (Herbicide No. 7 herein) is the active ingredient in the commercial product LASSO® herbicide.
# corn [5] = assay: Example 2, Procedure II: dichloroacetamide antidotes against Herbicide No. 1; assay type: in vivo; details: Herbicide No. 1, Table 2
# Procedure: as §1, §2, §3
# In this example, a plurality of dichloroacetamide antidotes were tested for their safening efficacy against Herbicide No. 1 in corn, using Procedure II. In this test the weed was velvetleaf; barnyardgrass was not present in this test.
# corn [6] = assay: Example 4, Procedure I: Antidote Nos. 15 and 16 against Herbicide No. 1; assay type: in vivo
# Procedure: as §1, §2, §6
# corn [7] = assay: Example 11, Procedure II: Herbicide No. 1 + metazachlor (No. 14) with antidotes; assay type: in vivo
# Procedure: as §1, §2, §3
# In this example, yet another α-chloroacetanilide co-herbicide, metazachlor (Herbicide No. 14) was combined with Herbicide No. 1 for investigation of the effect of various safeners on that composition. Metazachlor is the active ingredient in the commercial herbicide BUTISAN® S, used here as a 500 g/L formulation.
# corn [8] = assay: Example 15, Procedure II: Herbicide No. 1 + butylate (No. 10) with antidotes; assay type: in vivo
# Procedure: as §1, §2, §3
# This example describes experiments designed to investigate the antidotal efficacy of a plurality of antidotes against the herbicidal action of a combination of Herbicide No. 1 and butylate in corn and the prevalent weeds barnyardgrass and velvetleaf. The antidotes used in these experiments were Nos. 1-10, 12, 13 and 15.
# The test procedure used in these experiments was that of Procedure II described above. The antidotes were applied to a soil cover layer by pipet after spraying the herbicides onto the soil, followed by incorporation and overhead irrigation.
# corn [9] = assay: Example 25, greenhouse preemergence test: Antidote Nos. 1 and 2 against Herbicide Nos. 1-3; assay type: in vivo, Corn (Pioneer 3424 variety); details: Preemergence
# Procedure: The chemicals were tested in both preemergence and post-emergence modes of application. The herbicides were prepared and applied as wettable powders; dichlormid was applied as an emulsifiable concentrate, while the naphthalic anhydride was applied as a coating on the corn seed prior to planting.
# Test data from the preemergence tests are shown in Table 25A and from the post-emergence tests in Table 25B. In the tables, the concentration of chemicals is shown in terms of active ingredient in grams per hectare (G/ha); concentrations of the naphthalic anhydride were not measured per se, but were present as in conventional, normally-coated applications. Corn injury is shown in terms of percent inhibition of growth.
# [10] = Herbicide No.1 0.14 kg/ha + Herbicide No.13 2.24 kg/ha, antidote rate 2.24 kg/ha
# [11] = Herbicide No.1 0.14 kg/ha + Herbicide No.13 2.24 kg/ha, antidote rate 8.96 kg/ha
# [12] = Herbicide No.1 0.56 kg/ha + Herbicide No.13 2.24 kg/ha, antidote rate 2.24 kg/ha
# [13] = Herbicide No.1 0.56 kg/ha + Herbicide No.13 2.24 kg/ha, antidote rate 8.96 kg/ha
# [14] = Herbicide No.1 0.14 kg/ha + Herbicide No.5 4.48 kg/ha, antidote rate 2.24 kg/ha
# [15] = Herbicide No.1 0.14 kg/ha + Herbicide No.5 4.48 kg/ha, antidote rate 8.96 kg/ha
# [16] = Herbicide No.1 0.56 kg/ha + Herbicide No.5 4.48 kg/ha, antidote rate 2.24 kg/ha
# [17] = Herbicide No.1 0.56 kg/ha + Herbicide No.5 4.48 kg/ha, antidote rate 8.96 kg/ha
# [18] = Herbicide No.1 0.56 kg/ha + Herbicide No.14 3.36 kg/ha, antidote rate 2.24 kg/ha
# [19] = Herbicide No.1 0.56 kg/ha + Herbicide No.14 3.36 kg/ha, antidote rate 8.96 kg/ha
# [20] = Herbicide No.1 1.12 kg/ha + Herbicide No.14 3.36 kg/ha, antidote rate 2.24 kg/ha
# [21] = Herbicide No.1 1.12 kg/ha + Herbicide No.14 3.36 kg/ha, antidote rate 8.96 kg/ha
# [22] = Herbicide No.1 0.56 kg/ha + Herbicide No.10 6.72 kg/ha, antidote rate 2.24 kg/ha
# [23] = Herbicide No.1 0.56 kg/ha + Herbicide No.10 6.72 kg/ha, antidote rate 8.96 kg/ha
# [24] = Herbicide No.1 1.12 kg/ha + Herbicide No.10 6.72 kg/ha, antidote rate 2.24 kg/ha
# [25] = Herbicide No.1 1.12 kg/ha + Herbicide No.10 6.72 kg/ha, antidote rate 8.96 kg/ha
Structure (SMILES),"% Injury VL [1, 10] [%]","% Injury VL [1, 11] [%]","% Injury VL [1, 12] [%]","% Injury VL [1, 13] [%]","% Injury BYG [2, 10] [%]","% Injury BYG [2, 11] [%]","% Injury BYG [2, 12] [%]","% Injury BYG [2, 13] [%]",% Injury Corn (corn [3]; [14]) [%],% Injury Corn (corn [3]; [15]) [%],% Injury Corn (corn [3]; [16]) [%],% Injury Corn (corn [3]; [17]) [%],% Injury Corn (corn [7]; [18]) [%],% Injury Corn (corn [7]; [19]) [%],% Injury Corn (corn [7]; [20]) [%],% Injury Corn (corn [7]; [21]) [%],% Injury Corn (corn [8]; [22]) [%],% Injury Corn (corn [8]; [23]) [%],% Injury Corn (corn [8]; [24]) [%],% Injury Corn (corn [8]; [25]) [%],also measured
O=C(C(Cl)Cl)N1CCOC12CCCCC2 [compound 7],80,75,85,85,100,100,100,100,,,,,,,,,,,,,
"CC1(C)OC(c2ccco2)CN1C(=O)C(Cl)Cl (stereo not shown) [Antidote No. 15, Oxazolidine, 3-(dichloroacetyl)-5-(2-furanyl)-2,2-dimethyl]",,,,,,,,,,,,,,,,,,,,,"safening of corn, assessment in words (corn [3]; Herbicide Nos. 1 and 5, Table 10): best safening effect; safening of corn, assessment in words (corn [4]): substantial safening of corn; safening of corn, assessment in words (corn [5]): most safening and commercial-level protection for corn, at all ratios tested; % Injury Corn (corn [6]; Herb. No. 1 4.48 kg/ha + antidote 0.56 kg/ha): 10%; % Injury Corn (corn [6]; Herb. No. 1 4.48 kg/ha + antidote 2.24 kg/ha): 13%; safening of corn, assessment in words (corn [6]; Herbicide No. 1, Table 4): substantial safening of Herbicide No. 1; safening of corn, assessment in words (corn [7]; Herbicides 1 and 14, Table 11): outperformed the antidotes (2 and 13) of other chemistries"
CC1(C(Cl)Cl)OCCO1 [compound 13],70,75,90,90,100,100,100,100,0,15,45,10,75,40,60,70,10,15,20,0,
O=C1OC(=O)c2cccc3cccc1c23 [compound 2],80,75,85,80,100,100,100,100,,,,,,,,,,,,,"% Inhibition Corn (corn [9]; Herbicide No. 1 0.25 G/ha + antidote as seed treatment (concentration not measured)): 18.2%; % Inhibition Corn (corn [9]; Herbicide No. 1 0.74 G/ha + antidote as seed treatment (concentration not measured)): 31.2%; % Inhibition Corn (corn [9]; Herbicide No. 2 0.25 G/ha + antidote as seed treatment (concentration not measured)): 31.5%; % Inhibition Corn (corn [9]; Herbicide No. 2 0.74 G/ha + antidote as seed treatment (concentration not measured)): 18.9%; % Inhibition Corn (corn [9]; Herbicide No. 2 2.5 G/ha + antidote as seed treatment (concentration not measured)): 31.9%; % Inhibition Corn (corn [9]; Herbicide No. 3 0.07 G/ha + antidote as seed treatment (concentration not measured)): 13.2%; % Inhibition Corn (corn [9]; Herbicide No. 3 0.25 G/ha + antidote as seed treatment (concentration not measured)): 29.3%; % Inhibition Corn (corn [9]; Herbicide No. 3 0.74 G/ha + antidote as seed treatment (concentration not measured)): 46.9%; % Inhibition Corn (corn [9]; antidote alone as seed treatment (concentration not measured), no herbicide): 17.4%"
C=CCN(CC=C)C(=O)C(Cl)Cl [compound 1],75,75,85,85,100,100,100,100,10,0,15,0,25,50,45,50,15,10,20,30,"% Inhibition Corn (corn [9]; Herbicide No. 1 0.25 G/ha + antidote 7.41 G/ha): 23.2%; % Inhibition Corn (corn [9]; Herbicide No. 1 0.74 G/ha + antidote 7.41 G/ha): 28.4%; % Inhibition Corn (corn [9]; Herbicide No. 1 2.5 G/ha + antidote 7.41 G/ha): 26.2%; % Inhibition Corn (corn [9]; Herbicide No. 2 0.25 G/ha + antidote 7.41 G/ha): 26.5%; % Inhibition Corn (corn [9]; Herbicide No. 2 0.74 G/ha + antidote 7.41 G/ha): 28.9%; % Inhibition Corn (corn [9]; Herbicide No. 2 2.5 G/ha + antidote 7.41 G/ha): 37.3%; % Inhibition Corn (corn [9]; Herbicide No. 3 0.07 G/ha + antidote 7.41 G/ha): 9.3%; % Inhibition Corn (corn [9]; Herbicide No. 3 0.25 G/ha + antidote 7.41 G/ha): 43.0%; % Inhibition Corn (corn [9]; Herbicide No. 3 0.74 G/ha + antidote 7.41 G/ha): 83.9%; inhibition at 7.41 g/ha (corn [9]; Zea mays, pre-emergence, antidote alone 7.41 G/ha, no herbicide, read-out: % Inhibition Corn): 21%"
